Results taken from patent US10023557B2 (LifeSci Pharmaceuticals, Inc., priority 2015, dated 2018).
pEC50, pIC50: −log10 of the molar value.

How the values were obtained:
[1] = target: cellular kallikrein activity (Homo sapiens (Human), UniProt P03952); assay: In vitro cellular assay (contact assay): kallikrein activity in ellagic acid-activated human plasma, Z-FR-2-AMC substrate; assay type: biochemical; details: human plasma activated with ellagic acid, 37° C.
Procedure: The ability of the compounds disclosed herein to inhibit cellular kallikrein activity was quantified and the respective EC50 value was determined.
All dilutions were prepared in an assay buffer comprising 50 mM Tris-HCl pH 7.2, 150 mM NaCl, and 0.01% Triton X-100.
The ten solutions of the test compounds, prepared by serial dilution, were further diluted 50-fold in the assay buffer.
Human plasma is thawed on ice and centrifuged for 15 min at 4° C. to remove platelets. A 1 mM stock solution of ellagic acid is diluted to 8 μM and mixed with human plasma, after removing platelets, at a ratio of 1:0.8.
A 22.5 μL volume of the final mixture of human plasma and ellagic acid was added to a 96-well microwell plate and the plate was incubated for 15 min at 37° C.
The CINH inhibitor at various concentrations, prepared by serial dilutions as described above, were added to the inhibitor control wells. […] Each CINH concentration is tested in duplicates.
The test compounds at various concentrations, also prepared by serial dilutions as described above, are added to the test wells. […] Each test compound concentration was tested in duplicates.
In addition to the inhibitor control and test wells, the 96 well assay plate includes positive control wells which contained the mixture of human plasma and ellagic acid without C1NH inhibitor or test compounds, and background wells which contained neither the mixture of human plasma and ellagic acid nor the test compounds. The total volume of liquid in positive control and background wells was brought up to 35 μL, using the assay buffer.
The assay plate containing C1NH inhibitors and test compounds mixed with human plasma and ellagic acid and appropriate controls was incubated at 37° C. for 5 min. […] The reagents were mixed well by shaking the plate gently for 30 sec.
The enzyme reaction was quantified by immediate kinetic reading of the assay plate using excitation/emission wavelengths of 330 nm/440 nm respectively. Fluorescence intensity was recorded for 60 min, using a time interval of 43 sec.
The inhibition activity of the test compounds were evaluated using the EC50 values, calculated according to the dose-response curve of the test compounds, fitted using the “log(inhibitor)−response (variable slope)” equation in GraphPadPrism software (GraphPad Software, Inc.).
The percentage inhibition was calculated using the following equation:
[formula] where, Mean (BG) is the average value of the fluorescence intensity of the background wells and Mean (PC) is the average value of the fluorescence intensity of the positive control wells.
Table 4 provides the EC50 values of various compounds disclosed herein.

human plasma kallikrein = human plasma kallikrein (Homo sapiens (Human), UniProt P03952); assay: In vitro enzyme inhibition of human plasma kallikrein (PFR-AMC cleavage); assay type: biochemical; details: Pro-Phe-Arg-AMC substrate, 37° C., read-out: hPK IC50
How it was run: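 Human plasma kallikrein and compound, diluted in 50 mM Tris-HCl pH 7.5, 150 mM NaCl, 0.01% Triton X-100, preincubated 5 min at 37 °C before PFR-AMC was added.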

Chain of human plasma kallikrein (P03952 391-638): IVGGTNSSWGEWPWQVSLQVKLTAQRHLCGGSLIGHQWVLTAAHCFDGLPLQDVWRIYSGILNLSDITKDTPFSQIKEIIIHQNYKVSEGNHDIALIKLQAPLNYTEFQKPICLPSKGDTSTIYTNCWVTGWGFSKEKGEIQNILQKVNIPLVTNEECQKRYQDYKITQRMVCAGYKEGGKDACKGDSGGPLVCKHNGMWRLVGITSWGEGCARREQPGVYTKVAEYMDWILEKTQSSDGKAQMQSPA
Chain of human plasma kallikrein (P03952 20-390 partner): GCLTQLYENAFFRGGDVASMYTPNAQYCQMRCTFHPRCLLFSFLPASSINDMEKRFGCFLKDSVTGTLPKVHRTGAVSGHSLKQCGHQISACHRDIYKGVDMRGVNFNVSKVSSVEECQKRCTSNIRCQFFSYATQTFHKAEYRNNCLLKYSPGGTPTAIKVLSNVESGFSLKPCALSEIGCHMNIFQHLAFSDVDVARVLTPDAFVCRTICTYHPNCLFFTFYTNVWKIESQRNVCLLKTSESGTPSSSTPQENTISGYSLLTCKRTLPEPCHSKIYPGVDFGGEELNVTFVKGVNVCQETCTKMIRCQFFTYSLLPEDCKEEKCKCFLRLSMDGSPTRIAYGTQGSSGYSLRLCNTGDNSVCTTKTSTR
Chain of cellular kallikrein activity (P03952 391-638): as the sequence (P03952 391-638) above
Chain of cellular kallikrein activity (P03952 20-390 partner): as the sequence (P03952 20-390 partner) above

SMILES | pEC50 [1] | pIC50 (human plasma kallikrein)
Cc1cc(N)nc(C)c1CNC(=O)c1ccnc(Cc2cnc3[nH]c(C(F)(F)F)cc3c2)c1 [Example 152, N-((6-amino-2,4-dimethylpyridin-3-yl)methyl)-2-((2-(trifluoromethyl)-1H-pyrrolo[2,3-b]pyridin-5-yl)methyl)isonicotinamide] | 6.00 to 7.00 | > 7.00
Cc1ccn2cnc(CNC(=O)c3ccnc(Cc4ccc5ncc(Cl)cc5c4)c3)c2c1 [Example 156, 2-((3-chloroquinolin-6-yl)methyl)-N-((7-methylimidazo[1,5-a]pyridin-1-yl)methyl)isonicotinamide] | 6.00 to 7.00 | > 7.00
Cc1cc(CN)nc(C)c1CNC(=O)c1ccnc(Cc2ccc3ncc(Cl)cc3c2)c1 [Example 171, N-((6-(aminomethyl)-2,4-dimethylpyridin-3-yl)methyl)-2-((3-chloroquinolin-6-yl)methyl)isonicotinamide] | 6.00 to 7.00 | > 7.00
Cc1nc2c(c(C)c1CNC(=O)c1ccnc(Cc3ccc4ncc(C(F)(F)F)cc4c3)c1)CCN2 [Example 176, N-((4,6-dimethyl-2,3-dihydro-1H-pyrrolo[2,3-b]pyridin-5-yl)methyl)-2-((3-(trifluoromethyl)quinolin-6-yl)methyl)isonicotinamide] | 6.00 to 7.00 | > 7.00
Nc1nccc2cc(CNC(=O)c3ccnc(Cc4ccc5ncc(Cl)cc5c4)c3)c(F)cc12 [Example 180, N-((1-amino-7-fluoroisoquinolin-6-yl)methyl)-2-((3-chloroquinolin-6-yl)methyl)isonicotinamide] | 6.00 to 7.00 | > 7.00
Nc1nccc2cc(CNC(=O)c3ccnc(Cc4ccc5ncc(C(F)(F)F)cc5c4)c3)c(F)cc12 [Example 182, N-((1-amino-7-fluoroisoquinolin-6-yl)methyl)-2-((3-(trifluoromethyl)quinolin-6-yl)methyl)isonicotinamide] | 6.00 to 7.00 | > 7.00
Cc1cc(N)nc(C)c1CNC(=O)c1cc(Cc2ccc3ncc(Cl)cc3c2)nc(C(C)(C)O)c1 [Example 210, N-((6-amino-2,4-dimethylpyridin-3-yl)methyl)-2-((3-chloroquinolin-6-yl)methyl)-6-(2-hydroxypropan-2-yl)isonicotinamide] | > 7.00 | > 7.00
Cc1cc(N)nc(C)c1CNC(=O)c1cc(CN)nc(Cc2ccc3ncc(Cl)cc3c2)c1 [Example 211, N-((6-amino-2,4-dimethylpyridin-3-yl)methyl)-2-(aminomethyl)-6-((3-chloroquinolin-6-yl)methyl)isonicotinamide] | > 7.00 | > 7.00
Cc1cc(N)nc(C)c1CNC(=O)c1cc(CO)nc(Cc2ccc3ncc(Cl)cc3c2)c1 [Example 212, N-((6-amino-2,4-dimethylpyridin-3-yl)methyl)-2-((3-chloroquinolin-6-yl)methyl)-6-(hydroxymethyl)isonicotinamide] | > 7.00 | > 7.00
Cc1cc(N)nc(C)c1CNC(=O)c1cc(CC#N)nc(Cc2ccc3ncc(Cl)cc3c2)c1 [Example 213, N-((6-amino-2,4-dimethylpyridin-3-yl)methyl)-2-((3-chloroquinolin-6-yl)methyl)-6-(cyanomethyl)isonicotinamide] | > 7.00 | > 7.00
Cc1cc(N)nc(C)c1CNC(=O)c1cc(CC(N)=O)nc(Cc2ccc3ncc(Cl)cc3c2)c1 [Example 214, N-((6-amino-2,4-dimethylpyridin-3-yl)methyl)-2-(2-amino-2-oxoethyl)-6-((3-chloroquinolin-6-yl)methyl)isonicotinamide] | > 7.00 | > 7.00
Cc1cc(N)nc(C)c1CNC(=O)c1ccnc(Cc2cc3cc(C(F)(F)F)cnc3[nH]2)c1 [Example 215, N-((6-amino-2,4-dimethylpyridin-3-yl)methyl)-2-((5-(trifluoromethyl)-1H-pyrrolo[2,3-b]pyridin-2-yl)methyl)isonicotinamide] | 6.00 to 7.00 | > 7.00
Cc1cc(N)nc(C)c1CNC(=O)c1ccnc(Cc2cc(N)c3ncc(Cl)cc3c2)c1 [Example 217, N-((6-amino-2,4-dimethylpyridin-3-yl)methyl)-2-((8-amino-3-chloroquinolin-6-yl)methyl)isonicotinamide] | > 7.00 | > 7.00
Cc1cc(N)nc(C)c1CNC(=O)c1ccnc(Cc2cc(C(C)(C)O)c3ncc(Cl)cc3c2)c1 [Example 219, N-((6-amino-2,4-dimethylpyridin-3-yl)methyl)-2-((3-chloro-8-(2-hydroxypropan-2-yl)quinolin-6-yl)methyl)isonicotinamide] | > 7.00 | > 7.00
Cc1nc(N)ccc1CNC(=O)c1ccnc(Cc2cc(C(C)(C)O)c3ncc(Cl)cc3c2)c1 [Example 220, N-((6-amino-2-methylpyridin-3-yl)methyl)-2-((3-chloro-8-(2-hydroxypropan-2-yl)quinolin-6-yl)methyl)isonicotinamide] | > 7.00 | > 7.00

More lines, now with the values ahead:

pEC50 [1] | pIC50 (human plasma kallikrein) | SMILES
> 7.00 | > 7.00 | Cc1nc(N)ccc1CNC(=O)c1ccnc(Cc2cc3cc(Cl)cnc3cn2)c1 [Example 149, N-((6-amino-2-methylpyridin-3-yl)methyl)-2-((3-chloro-1,7-naphthyridin-6-yl)methyl)isonicotinamide]
> 7.00 | > 7.00 | Cc1cc(N)nc(C)c1CNC(=O)c1ccnc(Cc2cc3cc(Cl)cn3cn2)c1 [Example 153, N-((6-amino-2,4-dimethylpyridin-3-yl)methyl)-2-((6-chloropyrrolo[1,2-c]pyrimidin-3-yl)methyl)isonicotinamide]
> 7.00 | > 7.00 | Cc1cc(CN)nc(C)c1CNC(=O)c1ccnc(Cc2ccc3ncc(C(F)(F)F)cc3c2)c1 [Example 172, N-((6-(aminomethyl)-2,4-dimethylpyridin-3-yl)methyl)-2-((3-(trifluoromethyl)quinolin-6-yl)methyl)isonicotinamide]
> 7.00 | > 7.00 | Cc1c(CNC(=O)c2ccnc(Cc3ccc4ncc(Cl)cc4c3)c2)ccc2c(N)nccc12 [Example 177, N-((1-amino-5-methylisoquinolin-6-yl)methyl)-2-((3-chloroquinolin-6-yl)methyl)isonicotinamide]
> 7.00 | > 7.00 | Nc1nccc2c(F)c(CNC(=O)c3ccnc(Cc4ccc5ncc(Cl)cc5c4)c3)ccc12 [Example 178, N-((1-amino-5-fluoroisoquinolin-6-yl)methyl)-2-((3-chloroquinolin-6-yl)methyl)isonicotinamide]
> 7.00 | > 7.00 | Cc1cc2c(N)nccc2cc1CNC(=O)c1ccnc(Cc2ccc3ncc(Cl)cc3c2)c1 [Example 181, N-((1-amino-7-methylisoquinolin-6-yl)methyl)-2-((3-chloroquinolin-6-yl)methyl)isonicotinamide]
> 7.00 | > 7.00 | Cc1cc2c(N)nccc2cc1CNC(=O)c1ccnc(Cc2ccc3ncc(C(F)(F)F)cc3c2)c1 [Example 183, N-((1-amino-7-methylisoquinolin-6-yl)methyl)-2-((3-(trifluoromethyl)quinolin-6-yl)methyl)isonicotinamide]
> 7.00 | > 7.00 | Cc1c(CNC(=O)c2ccnc(Cc3ccc4ncc(C(F)(F)F)cc4c3)c2)ccc2c(N)nccc12 [Example 184, N-((1-amino-5-methylisoquinolin-6-yl)methyl)-2-((3-(trifluoromethyl)quinolin-6-yl)methyl)isonicotinamide]
> 7.00 | > 7.00 | Nc1nc(C(F)(F)F)n2cc(CNC(=O)c3ccnc(Cc4ccc5ncc(Cl)cc5c4)c3)ccc12 [Example 186, N-((1-amino-3-(trifluoromethyl)imidazo[1,5-a]pyridin-6-yl)methyl)-2-((3-chloroquinolin-6-yl)methyl)isonicotinamide]
> 7.00 | > 7.00 | Cc1cc(N)nc(C)c1CNC(=O)c1ccnc(Cc2cnc3ncc(Cl)cc3c2)c1 [Example 204, N-((6-amino-2,4-dimethylpyridin-3-yl)methyl)-2-((6-chloro-1,8-naphthyridin-3-yl)methyl)isonicotinamide]
> 7.00 | > 7.00 | Cc1cc(N)nc(C)c1CNC(=O)c1cc(Cc2ccc3ncc(Cl)cc3c2)nc(C(N)=O)c1 [Example 208, N^4-((6-amino-2,4-dimethylpyridin-3-yl)methyl)-6-((3-chloroquinolin-6-yl)methyl)pyridine-2,4-dicarboxamide]
